Measurements published in PubChem BioAssay (NCI).
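Step 1: Grow cells in 96-well plates. Step 2: Expose to compound for 48 hours at 5 concentrations. Step 3: Interpolate endpoints linearly; if unreached, use highest concentration. GI50: concentration for 50% inhibition of growth. TGI: concentration producing complete growth inhibition.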

Legend:
Assay in all cases: NCI-60 cell line screen, 48 h
HL-60(TB) leukemia = test system: HL-60(TB) leukemia
BT-549 breast = test system: BT-549 breast
SK-MEL-28 melanoma = test system: SK-MEL-28 melanoma
LOX IMVI melanoma = test system: LOX IMVI melanoma
HCT-15 colon = test system: HCT-15 colon
NCI-H226 lung = test system: NCI-H226 lung
CAKI-1 renal = test system: CAKI-1 renal
M14 melanoma = test system: M14 melanoma
COLO 205 colon = test system: COLO 205 colon
A549 NSCLC = test system: A549 NSCLC

Row | Structure (SMILES) | GI50 (HL-60(TB) leukemia) | TGI (HL-60(TB) leukemia) | GI50 (BT-549 breast) | TGI (BT-549 breast) | GI50 (SK-MEL-28 melanoma) | TGI (SK-MEL-28 melanoma) | GI50 (LOX IMVI melanoma) | TGI (LOX IMVI melanoma) | GI50 (HCT-15 colon) | TGI (HCT-15 colon) | GI50 (NCI-H226 lung) | TGI (NCI-H226 lung) | GI50 (CAKI-1 renal) | TGI (CAKI-1 renal) | GI50 (M14 melanoma) | TGI (M14 melanoma) | GI50 (COLO 205 colon) | TGI (COLO 205 colon) | GI50 (A549 NSCLC) | TGI (A549 NSCLC)
1 | O=C(Nc1ccc(Cl)cc1)c1cccc(NC2=C(Cl)C(=O)N(Cc3ccccc3)C2=O)c1 | 4.37 µM | 18.9 µM | 2.16 µM | 13.2 µM | 25.7 µM | > 100 µM | 11.1 µM | 23.2 µM | 12.2 µM | 26.9 µM | 4.31 µM | 21.3 µM | 3.5 µM | 15.7 µM | 14.5 µM | 72.8 µM | 21.7 µM | > 100 µM | 14.8 µM | 28 µM
2 | O=C1OC(O)[C@@H]2[C@H]1[C@H]1CC[C@@H]2O1 (some centres undefined) | > 42.3 µM | > 100 µM | > 100 µM | > 100 µM | > 58.2 µM | > 94 µM | > 100 µM | > 100 µM | > 100 µM | > 100 µM | > 79.4 µM | > 100 µM | 71.9 µM | > 100 µM | 84.5 µM | > 100 µM | 1.21 µM | 6.31 µM | 60.8 µM | > 100 µM
3 | Cn1cnc([N+](=O)[O-])c1S(=O)(=O)Oc1cccc2ccccc12 | 5.34 µM | 31.4 µM | 14.4 µM | 30.7 µM | 4.68 µM | 14.5 µM | 2.04 µM | 5.73 µM | 1.97 µM | 4.72 µM | 3.79 µM | 31 µM | 1.76 µM | 4.07 µM | 3.17 µM | 10.2 µM | 1.06 µM | 2.64 µM | 17.5 µM | 52.4 µM
4 | CCN(CC)c1ccc(-c2cc(-c3cc(OC)c(OC)c(OC)c3)nc(N3CCOCC3)c2C#N)cc1 | 0.463 µM | 6.08 µM | 0.48 µM | > 100 µM | 4.78 µM | > 63.5 µM | 0.189 µM | 0.791 µM | 0.584 µM | > 66.6 µM | 2.34 µM | 42.2 µM | 0.366 µM | > 53.2 µM | 0.292 µM | 1.33 µM | 0.439 µM | 7.48 µM | 1.37 µM | > 100 µM
5 | Cc1c2c(nn1-c1ccc(S(=O)(=O)/N=C3\SCCC(=O)N3c3ccccc3)cc1)-c1ccccc1CC2 | > 100 µM | > 100 µM | > 100 µM | > 100 µM | > 100 µM | > 100 µM | > 100 µM | > 100 µM | > 100 µM | > 100 µM | 84.4 µM | > 100 µM | > 100 µM | > 100 µM | > 100 µM | > 100 µM | > 100 µM | > 100 µM | > 100 µM | > 100 µM
6 | Cc1ccc(S(=O)(=O)N/N=C/C2(c3ccccc3)c3ccccc3-c3ccccc32)cc1 |  | > 100 µM |  | 27.7 µM |  | 28.6 µM |  | 26.1 µM |  | 22.4 µM |  | 34.1 µM |  | 62.4 µM |  | 23.3 µM |  | 13.8 µM |  | 19.8 µM
7 | COc1cc(OC)cc(-c2cc(=O)c3c(OC)c(OC)c(OC)c(OC)c3o2)c1 |  | > 100 µM |  | > 100 µM |  | > 100 µM |  | > 100 µM |  | > 100 µM |  | > 100 µM |  | > 100 µM |  | > 100 µM |  | 30.6 µM |  | > 100 µM
8 | OC(c1nc2ccccc2[nH]1)C(O)C(O)C(O)c1nc2ccccc2[nH]1 (centres undefined) |  | > 100 µM |  | > 100 µM |  | > 100 µM |  | > 100 µM |  | > 100 µM |  | > 100 µM |  | > 100 µM |  | > 100 µM |  | > 100 µM |  | > 100 µM
9 | CCCCCCCC(=O)SCC/C=C/[C@@H]1CC(=O)NCc2cc(ccn2)C2=N[C@@](C)(CS2)C(=O)N[C@@H](C(C)C)C(=O)O1 | 0.0242 µM | > 33.3 µM | 0.0432 µM | > 33.3 µM | 0.0125 µM | 1.02 µM | 0.0172 µM | 0.0666 µM | 0.141 µM | > 33.3 µM | 0.0818 µM | 1.62 µM | 0.104 µM | 0.665 µM | 0.0111 µM | > 13.3 µM | 0.0513 µM | 0.147 µM | 0.0116 µM | 
10 | CN(C(=O)c1ccc(C(F)(F)F)cc1)c1ccc(Oc2ccc3c(c2)cc(C(=O)N2CCN(Cc4ccc(OC(F)F)cc4)CC2)n3C)nc1 | < 0.012 µM | > 100 µM | 6.71 µM | > 100 µM | 63.2 µM | > 100 µM | 0.882 µM | > 100 µM | > 100 µM | > 100 µM | 1.44 µM | > 100 µM | 2.27 µM | > 100 µM | > 100 µM | > 100 µM | 60 µM | > 100 µM | 3.23 µM | > 100 µM
11 | Cc1cc(/C=C/c2ccc3cc(N(C)C)ccc3[n+]2C)c(C)n1-c1ccccc1 | 0.0939 µM | 0.352 µM | 0.159 µM | 1.09 µM | 0.568 µM | 1.53 µM | 0.121 µM | 0.884 µM | 1.31 µM | 6.3 µM | 0.117 µM | 0.74 µM | 0.722 µM | 2.24 µM | 0.3 µM | 1.25 µM | 0.103 µM | 0.213 µM | 0.182 µM | 1.02 µM
12 | O=c1c2sccc2n(CC2COc3ccccc3O2)c(=O)n1O (centres undefined) | 16.9 µM | 44.7 µM | 12.1 µM | > 100 µM | 14.5 µM | > 100 µM | 6.45 µM | > 100 µM | 4.53 µM | > 100 µM | 24.6 µM | 83.6 µM | 20.1 µM | 97.3 µM | 21.2 µM | > 100 µM | 36.8 µM | > 100 µM | 23.3 µM | > 100 µM
